Assay results: US9809640B2, “ApoE peptide dimers and uses thereof” (priority 2010, dated 2017)
pEC50: −log10 of the molar value. Positions of bridges follow the written chain, without caps; N, C: chain ends. Chains are numbered I, II in the order given.

Experiments:
[1] = test system: mTOR; assay: mTOR phosphorylation in MB231 cells, Western blot; format: cell-based; conditions: markedly reduced at ≧100 nM
Text: FIG. 13A: Western blot and densitometry analysis of phosphorylated m-TOR levels in MDA-MB-231 cells treated with EGF and the indicated concentrations of COG445 in the presence or absence of okadaic acid. FIG. 13B: Western blot analysis of phosphorylated GSK-3β levels in MDA-MB-231 cells treated with EGF and the indicated concentrations of COG445 in the presence or absence of okadaic acid.
Akt exerts its proliferative signal by phosphorylating protein substrates such as mTOR and GSK-3β. To examine the effects of COG445 on downstream Akt signaling in MB231 cells, mTOR activation and GSK-3β inhibition was measured by western blot analysis. […] The reduction in mTOR and GSK-3β phosphorylation was eliminated in the presence of okadaic acid, further evidence that PP2A mediates the effects of COG445 on Akt signaling.

[2] = test system: c-myc; assay: Total c-myc protein levels, Western blot; format: cell-based
Text: (§1) FIG. 12A: Total PP2A activity immunoprecipitated from MDA-MB-231 cells treated with EGF and increasing concentrations of COG445. FIG. 12B: Western blot and densitometry analysis of total c-myc protein levels in U87 cells treated with the indicated concentrations of COG445 in the presence or absence of okadaic acid. FIG. 12C: Immunoprecipitation of the catalytic subunit of PP2A from MDA-MB-231 cells exposed to EGF and two different concentrations of COG445. The blot is probed for I2PP2A (SET) and PP2A catalytic subunit.
To further characterize the effect of COG445 on PP2A activity, MB231 cells were treated as above and the phosphatase activity of immunoprecipitated PP2A was measured. EGF stimulation caused a significant decrease in total PP2A activity compared to untreated serum starved cells (FIG. 12A). […] To further explore the extent of PP2A activation in response to COG445, total c-myc protein levels were determined by western blot analysis. C-myc is a substrate for PP2A and upon dephosphorylation is metabolized by ubiquitination and proteasomal degradation. In both U87 (FIG. 12B) and MB231 (data not shown) cell lines, c-myc levels decreased after a two-hour exposure to COG445 in a dose-dependent manner, reaching statistical significance at 1000 nM.

[3] = molecular target: T1, I2PP2A (SET) / PP2A catalytic subunit (Homo sapiens, UniProt Q01105); assay: Co-immunoprecipitation of I2PP2A (SET) with PP2A catalytic subunit in MB231 cells; format: cell-based; conditions: 0.1 or 1 μM pre-treatment
T1 construct: endogenous in cells; host or cells: MDA-MB-231
Text: as §1
To examine the mechanism of COG445 on PP2A activity, recombinant human PP2A catalytic subunit was incubated with COG445 and activity was measured. […] To further explore the changes of PP2A protein complexes, co-immunoprecipitation experiments were performed on MB231 cells.

[4] = test system: B-CLL cells; assay: Cytotoxicity on patient-derived B-CLL cells (MTS assay)
Text: FIG. 5A: Dose response curves for COG449 cytotoxicity on CLL cells from 4 leukemia patients. Human CLL cells were isolated from blood samples and assayed for COG449 cytotoxicity. […] FIG. 5B: Dose response curves for COG445 on CLL cells from 7 patients or normal B-cells from 5 patients. Human CLL cells and PBMC were isolated and assayed for cytotoxicity of COG445.
Blood from CLL patients was collected and CD5+/CD19+ CLL cells were isolated using the RosetteSep™ Human B-Cell Enrichment Cocktail, according to the manufacturer's instructions, and treated with COG compounds. Compounds were applied to B-CLL cells (2.5×10^5 cells/well in a 96 well plate), after which the cells were treated for 72 hours.
Normal B-cells from volunteers and B-CLL cells from patients are isolated using the RosetteSep™ Human B Cell Enrichment Cocktail according to the manufacturer's instructions. This method depletes whole blood of T cells, monocytes, and NK cells using a proprietary antibody cocktail that cross-links unwanted cells in human whole blood to multiple red blood cells (RBCs) forming immunorosettes. This increases the density of the unwanted (rosetted) cells, such that they pellet along with the free RBCs when centrifuged over a buoyant density medium such as Ficoll-Paque®. This leaves the highly enriched B-cell or B-CLL cells at the interface between Ficoll and the plasma. The antibodies in the cocktail contain […] and anti-CD16 antibodies to remove T cells, monocytes, and NK cells, respectively. The purity of these B-cell and B-CLL preparations is then determined by flow cytometry.
For cytotoxicity assays, 3×10^6 CLL cells/well are cultured in 24 well tissue culture plates in 1.5 mL of Hybridoma SFM™ (Gibco, Long Island, N.Y.) as described by Levesque et al. (2001, 2003). All cultures are incubated at 37° C., 5% CO2 in air.

[5] = test system: MDA-MB-231 breast cancer cells; format: cell-based; conditions: MB231, ~24 hours
Description: (§2) FIG. 14A: Dose response curve of COG445 on proliferation of U87 (open circles) and MDA-MB-231 (filled circles) cells as measured by MTT reduction. FIG. 14B: Dose response curve of COG445 on proliferation of MDA-MB-231 cells as measured by cell count.
Next, we examined the potency of an ApoE peptide dimer versus the monomeric form on proliferation of the MDA-MB-231 breast cancer cell line. MDA-MB-231 cells were treated with various concentrations of either COG435 (monomer; SEQ ID NO: 90) or COG493 (a BMOE-linked dimer of COG 435) peptides for 48 hours. Following peptide treatment, cells were quantified using a MTT assay.
(§3) Because COG445 inhibited Akt activation and downstream signaling, we examined the effects of COG445 on cellular proliferation. Adherent MB231 and U87 cells were grown for ˜24 hours in the presence of COG445 and cellular proliferation was measured by MTT reduction. […] Furthermore, COG445 inhibited MB231 cellular proliferation as determined by cell count (FIG. 14B). Approximately 6×10^4 cells were plated in growth media (RPMI+10% FBS) for 24-hours with increasing concentrations of COG445. […] However at concentrations ≧1 μM COG445, there appears to be a loss of cells. This is partially explained by decreased proliferation, although it is possible that the rate of cellular degradation was increased in the presence of COG445.

[6] = test system: MDA-MB-231 cells; assay: MB231 cellular proliferation by cell count; format: cell-based
Description: as §2, §3

T1 sequence (Q01105 2-290 limits assumed): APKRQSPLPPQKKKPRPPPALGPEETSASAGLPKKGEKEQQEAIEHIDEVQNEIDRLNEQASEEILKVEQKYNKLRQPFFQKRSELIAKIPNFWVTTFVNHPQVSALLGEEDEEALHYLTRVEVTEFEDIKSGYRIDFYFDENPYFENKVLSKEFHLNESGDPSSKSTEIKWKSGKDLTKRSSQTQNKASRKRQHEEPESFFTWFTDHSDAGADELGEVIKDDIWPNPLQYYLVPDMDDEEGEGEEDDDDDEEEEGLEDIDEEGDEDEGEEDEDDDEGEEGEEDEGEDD

I: Ac-RQIKIWFQNRRMKWKKCLRVRLASHLRKLRKRLL-NH2 / II: Ac-RQIKIWFQNRRMKWKKCLRVRLASHLRKLRKRLL-NH2 (disulfide I:17-II:17) [COG445, COG112-C-C-COG112]
mTOR phosphorylation upon EGF stimulation [1]: dose-dependent decrease
c-myc levels in the presence of OA [2]: unaltered
c-myc levels ([2]; two-hour exposure, U87 and MB231, significant at 1000 nM): decreased
association of I2PP2A to the catalytic subunit of PP2A [3]: strongly diminished
Fold Change ([4]; CLL EC50 relative to COG056 (rev133) = 1.0): 117.3
pEC50 ([4]; read-out: ED50 for cytotoxicity of CLL cells, purified disulfide dimer, dimer molecular weight): 6.96
proliferation by MTT reduction [5]: dose-dependent decrease
cellular proliferation by cell count ([6]; 0.1 μM): slight decrease
cellular proliferation by cell count ([6]; 24 hours): inhibited
cell count ([6]; ≧1 μM): loss of cells
